Measurements published in ChEMBL document CHEMBL1909046, “DrugMatrix in vitro pharmacology data”.

Target: T1, Polyunsaturated fatty acid lipoxygenase ALOX15 (Oryctolagus cuniculus, UniProt P12530);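 note: inhibition of 15-lipoxygenase enzyme activity measured with linoleic acid as the substrate; in other assays of this panel Not Active means under 50% inhibition at 10 µM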
T1 sequence (P12530 whole entry): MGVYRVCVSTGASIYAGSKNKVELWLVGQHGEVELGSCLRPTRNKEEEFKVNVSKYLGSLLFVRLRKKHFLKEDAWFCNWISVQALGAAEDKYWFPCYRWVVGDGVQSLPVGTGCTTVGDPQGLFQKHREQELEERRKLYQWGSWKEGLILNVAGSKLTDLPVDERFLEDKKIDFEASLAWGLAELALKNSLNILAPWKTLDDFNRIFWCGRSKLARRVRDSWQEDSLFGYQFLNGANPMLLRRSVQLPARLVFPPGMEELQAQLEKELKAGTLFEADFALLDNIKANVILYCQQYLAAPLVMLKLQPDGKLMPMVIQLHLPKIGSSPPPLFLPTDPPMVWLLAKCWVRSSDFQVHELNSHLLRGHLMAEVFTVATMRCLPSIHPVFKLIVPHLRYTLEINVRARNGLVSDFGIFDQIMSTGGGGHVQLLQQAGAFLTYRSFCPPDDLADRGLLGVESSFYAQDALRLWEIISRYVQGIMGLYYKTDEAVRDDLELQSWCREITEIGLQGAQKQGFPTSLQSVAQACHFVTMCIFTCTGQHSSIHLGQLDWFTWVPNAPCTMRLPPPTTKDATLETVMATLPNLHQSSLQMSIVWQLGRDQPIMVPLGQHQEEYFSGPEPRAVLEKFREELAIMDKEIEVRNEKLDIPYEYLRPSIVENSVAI
Test: biochemical
Type: tissue-based, Reticulocytes
Conditions: reticulocytes

SMILES	IC50	Ki
O=[N+]([O-])c1cc([As](=O)(O)O)ccc1O [ROXARSONE]	Not Active	Not Active
Cc1ncc([N+](=O)[O-])n1CC(C)O (stereo not given) [SECNIDAZOLE]	Not Active	–

Target: T2, Adenosine receptor A1 (Homo sapiens, UniProt P30542);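 note: radioligand binding assay at the adenosine A1 receptor, with DPCPX serving as the labelled ligand; in other assays of this panel Not Active means under 50% inhibition at 10 µM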
T2 sequence (P30542 whole entry): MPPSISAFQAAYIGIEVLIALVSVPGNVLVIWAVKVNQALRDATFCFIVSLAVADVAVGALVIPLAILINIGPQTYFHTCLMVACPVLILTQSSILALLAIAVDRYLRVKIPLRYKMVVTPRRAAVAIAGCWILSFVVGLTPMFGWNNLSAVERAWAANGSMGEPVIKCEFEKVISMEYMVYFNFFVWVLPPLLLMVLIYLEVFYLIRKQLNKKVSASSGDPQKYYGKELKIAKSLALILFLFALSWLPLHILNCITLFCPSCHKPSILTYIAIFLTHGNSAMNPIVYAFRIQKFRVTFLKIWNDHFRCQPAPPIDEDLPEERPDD
Test: not given
Type: cell membranes, CHO, Membrane
Conditions: cho

SMILES	IC50	Ki
O=[N+]([O-])c1cc([As](=O)(O)O)ccc1O [ROXARSONE]	Not Active	Not Active
Cc1ncc([N+](=O)[O-])n1CC(C)O (stereo not given) [SECNIDAZOLE]	Not Active	–

Tested on: not listed separately
Test: DRUGMATRIX: Calcium Channel Type L, Dihydropyridine radioligand binding (ligand: [3H] Nitrendipine)
Type: cell membranes, Rattus norvegicus, Wistar, Cerebral cortex, Membrane
Conditions: Not Active = under 50% inhibition at 10 µM

SMILES	IC50	Ki
O=[N+]([O-])c1cc([As](=O)(O)O)ccc1O [ROXARSONE]	Not Active	Not Active
Cc1ncc([N+](=O)[O-])n1CC(C)O (stereo not given) [SECNIDAZOLE]	Not Active	Not Active

Target: D(3) dopamine receptor (Homo sapiens, UniProt P35462)
Sequence (P35462 whole entry): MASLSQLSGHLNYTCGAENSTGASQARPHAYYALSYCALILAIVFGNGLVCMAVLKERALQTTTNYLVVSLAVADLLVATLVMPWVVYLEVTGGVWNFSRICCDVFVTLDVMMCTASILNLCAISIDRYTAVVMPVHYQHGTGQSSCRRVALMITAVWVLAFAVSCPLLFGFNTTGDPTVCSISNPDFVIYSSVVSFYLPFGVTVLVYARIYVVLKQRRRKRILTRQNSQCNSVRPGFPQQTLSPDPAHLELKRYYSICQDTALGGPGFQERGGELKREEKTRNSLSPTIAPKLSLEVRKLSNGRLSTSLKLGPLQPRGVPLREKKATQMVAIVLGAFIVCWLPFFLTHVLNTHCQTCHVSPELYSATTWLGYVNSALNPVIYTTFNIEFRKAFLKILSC
Test: DRUGMATRIX: Dopamine D3 radioligand binding (ligand: [3H] Spiperone)
Type: cell membranes, CHO, Membrane
Conditions: cho

SMILES	IC50	Ki
O=[N+]([O-])c1cc([As](=O)(O)O)ccc1O [ROXARSONE]	Not Active	Not Active
Cc1ncc([N+](=O)[O-])n1CC(C)O (stereo not given) [SECNIDAZOLE]	Not Active	–

Tested on: not listed separately
Test: DRUGMATRIX: beta-Lactamase enzyme inhibition (substrate: Nitrocefin)
Parameters: species or system Bacillus cereus
Conditions: Not Active = under 50% inhibition at 10 µM

SMILES	IC50	Ki
O=[N+]([O-])c1cc([As](=O)(O)O)ccc1O [ROXARSONE]	Not Active	Not Active
Cc1ncc([N+](=O)[O-])n1CC(C)O (stereo not given) [SECNIDAZOLE]	Not Active	Not Active

Target: T3, Cholecystokinin receptor type A (Homo sapiens, UniProt P32238); note: in other assays of this panel Not Active means under 50% inhibition at 10 µM
T3 sequence (P32238 whole entry): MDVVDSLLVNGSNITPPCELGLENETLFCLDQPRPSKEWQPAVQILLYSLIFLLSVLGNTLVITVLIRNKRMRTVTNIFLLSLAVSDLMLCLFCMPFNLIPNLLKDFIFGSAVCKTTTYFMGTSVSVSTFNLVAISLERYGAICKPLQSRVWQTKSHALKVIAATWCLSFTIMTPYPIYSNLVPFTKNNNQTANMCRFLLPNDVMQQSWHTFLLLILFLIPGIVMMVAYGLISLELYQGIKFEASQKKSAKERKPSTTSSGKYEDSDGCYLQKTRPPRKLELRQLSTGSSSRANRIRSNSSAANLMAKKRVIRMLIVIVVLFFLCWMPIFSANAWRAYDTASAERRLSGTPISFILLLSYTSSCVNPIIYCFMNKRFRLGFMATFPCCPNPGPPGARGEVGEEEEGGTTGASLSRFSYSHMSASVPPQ
Test: not given
Type: cell membranes, Membrane
Conditions: 1321-n1

SMILES	IC50	Ki
O=[N+]([O-])c1cc([As](=O)(O)O)ccc1O [ROXARSONE]	Not Active	Not Active
Cc1ncc([N+](=O)[O-])n1CC(C)O (stereo not given) [SECNIDAZOLE]	Not Active	–

Target: Beta-2 adrenergic receptor (Homo sapiens, UniProt P07550)
Sequence (P07550 whole entry): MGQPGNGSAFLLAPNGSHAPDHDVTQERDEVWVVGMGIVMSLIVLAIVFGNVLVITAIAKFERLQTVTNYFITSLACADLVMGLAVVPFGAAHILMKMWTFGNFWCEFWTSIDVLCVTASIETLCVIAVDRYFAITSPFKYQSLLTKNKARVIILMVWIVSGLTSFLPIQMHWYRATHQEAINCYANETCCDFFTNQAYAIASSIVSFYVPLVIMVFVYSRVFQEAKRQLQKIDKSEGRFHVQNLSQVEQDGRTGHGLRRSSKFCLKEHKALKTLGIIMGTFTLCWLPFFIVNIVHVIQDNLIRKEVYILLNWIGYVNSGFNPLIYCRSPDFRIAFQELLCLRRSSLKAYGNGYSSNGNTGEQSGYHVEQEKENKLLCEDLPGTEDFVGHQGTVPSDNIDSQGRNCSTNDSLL
Test: DRUGMATRIX: Adrenergic beta2 radioligand binding (ligand: [3H] CGP-12177)
Type: cell membranes, Membrane
Conditions: cho; Not Active = under 50% inhibition at 10 µM

SMILES	IC50	Ki
O=[N+]([O-])c1cc([As](=O)(O)O)ccc1O [ROXARSONE]	Not Active	Not Active
Cc1ncc([N+](=O)[O-])n1CC(C)O (stereo not given) [SECNIDAZOLE]	Not Active	–

Tested on: not listed separately
Test: DRUGMATRIX: Atrial Natriuretic Factor (ANF) radioligand binding (ligand: [125I] ANF (rat))
Type: cell membranes, Cavia porcellus, Dunkin-Hartley, Adrenal gland, Membrane
Conditions: Not Active = under 50% inhibition at 10 µM

SMILES	IC50	Ki
O=[N+]([O-])c1cc([As](=O)(O)O)ccc1O [ROXARSONE]	Not Active	Not Active
Cc1ncc([N+](=O)[O-])n1CC(C)O (stereo not given) [SECNIDAZOLE]	Not Active	Not Active

Target: Substance-P receptor (Homo sapiens, UniProt P25103); note: in other assays of this panel Not Active means under 50% inhibition at 10 µM
Sequence (P25103 whole entry): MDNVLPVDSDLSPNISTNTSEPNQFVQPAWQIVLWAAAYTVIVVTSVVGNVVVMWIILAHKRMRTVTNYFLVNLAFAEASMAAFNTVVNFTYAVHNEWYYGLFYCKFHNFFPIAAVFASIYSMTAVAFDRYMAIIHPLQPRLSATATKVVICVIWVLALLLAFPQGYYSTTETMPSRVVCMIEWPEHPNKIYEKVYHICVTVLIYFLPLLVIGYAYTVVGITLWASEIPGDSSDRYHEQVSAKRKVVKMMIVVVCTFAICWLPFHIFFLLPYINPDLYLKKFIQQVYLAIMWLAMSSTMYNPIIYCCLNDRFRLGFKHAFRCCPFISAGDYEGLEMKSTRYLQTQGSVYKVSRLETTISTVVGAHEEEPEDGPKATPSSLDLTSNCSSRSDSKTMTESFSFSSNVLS
Test: not given
Type: cell membranes, CHO, Membrane
Conditions: cho

SMILES	IC50	Ki
O=[N+]([O-])c1cc([As](=O)(O)O)ccc1O [ROXARSONE]	Not Active	Not Active
Cc1ncc([N+](=O)[O-])n1CC(C)O (stereo not given) [SECNIDAZOLE]	Not Active	–

Target: 5-hydroxytryptamine receptor 2B (Homo sapiens, UniProt P41595); note: in other assays of this panel Not Active means under 50% inhibition at 10 µM
Sequence (P41595 whole entry): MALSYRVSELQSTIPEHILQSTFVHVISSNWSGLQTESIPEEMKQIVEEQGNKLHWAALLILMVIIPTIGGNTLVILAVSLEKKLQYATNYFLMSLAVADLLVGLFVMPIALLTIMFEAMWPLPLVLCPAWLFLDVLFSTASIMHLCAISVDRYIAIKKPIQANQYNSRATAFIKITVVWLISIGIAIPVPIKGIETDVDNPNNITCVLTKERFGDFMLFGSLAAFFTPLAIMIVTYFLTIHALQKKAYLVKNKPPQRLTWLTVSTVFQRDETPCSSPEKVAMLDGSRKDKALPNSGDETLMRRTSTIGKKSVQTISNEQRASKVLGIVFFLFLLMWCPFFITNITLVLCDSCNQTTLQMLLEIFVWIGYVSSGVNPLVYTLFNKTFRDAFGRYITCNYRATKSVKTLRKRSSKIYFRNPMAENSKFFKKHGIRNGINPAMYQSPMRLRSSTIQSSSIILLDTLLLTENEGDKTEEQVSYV
Test: not given
Type: cell membranes, CHO-K1, Membrane
Conditions: cho-k1

SMILES	IC50	Ki
O=[N+]([O-])c1cc([As](=O)(O)O)ccc1O [ROXARSONE]	Not Active	Not Active
Cc1ncc([N+](=O)[O-])n1CC(C)O (stereo not given) [SECNIDAZOLE]	Not Active	–

Target: Vascular endothelial growth factor receptor 1 (Homo sapiens, UniProt P17948); note: in other assays of this panel Not Active means under 50% inhibition at 10 µM
Sequence (P17948 whole entry): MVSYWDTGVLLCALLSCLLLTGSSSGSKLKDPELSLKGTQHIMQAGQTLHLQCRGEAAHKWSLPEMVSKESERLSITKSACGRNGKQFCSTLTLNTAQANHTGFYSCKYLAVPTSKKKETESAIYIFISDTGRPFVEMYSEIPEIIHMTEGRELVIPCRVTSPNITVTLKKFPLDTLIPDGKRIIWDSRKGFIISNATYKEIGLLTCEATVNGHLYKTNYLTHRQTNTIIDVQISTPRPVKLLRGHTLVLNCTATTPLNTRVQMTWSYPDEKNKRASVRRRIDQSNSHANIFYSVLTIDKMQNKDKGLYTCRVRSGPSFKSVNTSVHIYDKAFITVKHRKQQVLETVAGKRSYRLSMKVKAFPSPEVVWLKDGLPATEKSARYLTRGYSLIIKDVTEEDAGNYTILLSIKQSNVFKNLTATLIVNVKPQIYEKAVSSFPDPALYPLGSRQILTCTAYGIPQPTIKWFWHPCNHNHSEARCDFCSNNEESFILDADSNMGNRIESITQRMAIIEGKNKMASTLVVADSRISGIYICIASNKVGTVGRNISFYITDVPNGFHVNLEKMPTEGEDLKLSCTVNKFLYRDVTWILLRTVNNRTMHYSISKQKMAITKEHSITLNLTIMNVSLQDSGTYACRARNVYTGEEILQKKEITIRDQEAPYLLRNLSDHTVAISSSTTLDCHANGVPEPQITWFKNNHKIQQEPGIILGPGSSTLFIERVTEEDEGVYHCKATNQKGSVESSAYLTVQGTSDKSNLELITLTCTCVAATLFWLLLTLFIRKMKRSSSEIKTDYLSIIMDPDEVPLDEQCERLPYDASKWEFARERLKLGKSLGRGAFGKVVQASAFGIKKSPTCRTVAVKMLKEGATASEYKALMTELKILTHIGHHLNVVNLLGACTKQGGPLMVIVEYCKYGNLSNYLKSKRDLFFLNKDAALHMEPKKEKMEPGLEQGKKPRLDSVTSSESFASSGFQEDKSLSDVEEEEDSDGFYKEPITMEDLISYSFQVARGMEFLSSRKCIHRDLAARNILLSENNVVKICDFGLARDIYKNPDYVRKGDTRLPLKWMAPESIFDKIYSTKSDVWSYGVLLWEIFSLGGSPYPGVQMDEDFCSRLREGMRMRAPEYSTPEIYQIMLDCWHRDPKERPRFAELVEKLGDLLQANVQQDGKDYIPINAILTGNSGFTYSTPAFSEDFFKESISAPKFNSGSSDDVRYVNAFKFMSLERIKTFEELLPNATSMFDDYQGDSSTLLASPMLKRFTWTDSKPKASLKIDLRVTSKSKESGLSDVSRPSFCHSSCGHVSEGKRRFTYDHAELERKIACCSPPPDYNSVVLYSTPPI
Test: not given
Type: cell-based
Conditions: huvec

SMILES	IC50	Ki
O=[N+]([O-])c1cc([As](=O)(O)O)ccc1O [ROXARSONE]	Not Active	Not Active
Cc1ncc([N+](=O)[O-])n1CC(C)O (stereo not given) [SECNIDAZOLE]	Not Active	–

Target: Mitogen-activated protein kinase 14 (Homo sapiens, UniProt Q16539)
Sequence (Q16539 whole entry): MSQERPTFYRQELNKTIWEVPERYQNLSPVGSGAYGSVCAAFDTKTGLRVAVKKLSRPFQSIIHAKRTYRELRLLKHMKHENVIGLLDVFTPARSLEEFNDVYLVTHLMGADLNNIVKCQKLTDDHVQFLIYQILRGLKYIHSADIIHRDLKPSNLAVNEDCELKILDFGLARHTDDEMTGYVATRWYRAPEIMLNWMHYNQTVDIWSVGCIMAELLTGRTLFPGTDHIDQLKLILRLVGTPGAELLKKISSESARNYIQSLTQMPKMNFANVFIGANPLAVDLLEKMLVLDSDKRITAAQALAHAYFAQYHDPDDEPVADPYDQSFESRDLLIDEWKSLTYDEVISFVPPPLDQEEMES
Test: not given
Parameters: species or system Escherichia coli
Conditions: not given

SMILES	IC50	Ki
O=[N+]([O-])c1cc([As](=O)(O)O)ccc1O [ROXARSONE]	Not Active	Not Active
Cc1ncc([N+](=O)[O-])n1CC(C)O (stereo not given) [SECNIDAZOLE]	Not Active	–

Target: T4, Alpha-2A adrenergic receptor (Homo sapiens, UniProt P08913); note: in other assays of this panel Not Active means under 50% inhibition at 10 µM
T4 sequence (P08913 whole entry): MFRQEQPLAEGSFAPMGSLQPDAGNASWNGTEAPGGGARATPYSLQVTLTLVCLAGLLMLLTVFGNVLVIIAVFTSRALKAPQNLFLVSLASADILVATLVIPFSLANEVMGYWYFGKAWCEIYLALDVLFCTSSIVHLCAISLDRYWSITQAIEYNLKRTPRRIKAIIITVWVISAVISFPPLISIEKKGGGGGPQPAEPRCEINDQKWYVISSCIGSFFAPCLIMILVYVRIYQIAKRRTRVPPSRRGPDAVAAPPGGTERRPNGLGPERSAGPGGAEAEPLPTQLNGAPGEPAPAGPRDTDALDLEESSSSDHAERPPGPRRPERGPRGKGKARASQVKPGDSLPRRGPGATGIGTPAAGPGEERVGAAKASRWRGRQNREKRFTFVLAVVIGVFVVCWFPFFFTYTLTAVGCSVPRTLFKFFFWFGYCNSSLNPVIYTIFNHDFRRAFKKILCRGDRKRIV
Test: not given
Type: cell membranes, Sf9, Membrane
Conditions: sf9

SMILES	IC50	Ki
O=[N+]([O-])c1cc([As](=O)(O)O)ccc1O [ROXARSONE]	Not Active	Not Active
Cc1ncc([N+](=O)[O-])n1CC(C)O (stereo not given) [SECNIDAZOLE]	Not Active	–

Target: C-C chemokine receptor type 5 (Homo sapiens, UniProt P51681); note: in other assays of this panel Not Active means under 50% inhibition at 10 µM
Sequence (P51681 whole entry): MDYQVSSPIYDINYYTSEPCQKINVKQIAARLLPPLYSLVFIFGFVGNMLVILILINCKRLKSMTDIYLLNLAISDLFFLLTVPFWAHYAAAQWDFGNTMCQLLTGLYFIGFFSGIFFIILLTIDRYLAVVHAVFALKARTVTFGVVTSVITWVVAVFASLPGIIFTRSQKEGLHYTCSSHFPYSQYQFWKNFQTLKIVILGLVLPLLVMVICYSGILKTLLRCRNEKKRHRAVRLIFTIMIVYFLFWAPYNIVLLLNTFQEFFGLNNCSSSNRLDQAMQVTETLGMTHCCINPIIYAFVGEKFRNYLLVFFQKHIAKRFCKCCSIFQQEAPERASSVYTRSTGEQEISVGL
Test: not given
Type: cell membranes, Membrane
Conditions: hek293

SMILES	IC50	Ki
O=[N+]([O-])c1cc([As](=O)(O)O)ccc1O [ROXARSONE]	Not Active	Not Active
Cc1ncc([N+](=O)[O-])n1CC(C)O (stereo not given) [SECNIDAZOLE]	Not Active	–

Target: D(1A) dopamine receptor (Homo sapiens, UniProt P21728)
Sequence (P21728 whole entry): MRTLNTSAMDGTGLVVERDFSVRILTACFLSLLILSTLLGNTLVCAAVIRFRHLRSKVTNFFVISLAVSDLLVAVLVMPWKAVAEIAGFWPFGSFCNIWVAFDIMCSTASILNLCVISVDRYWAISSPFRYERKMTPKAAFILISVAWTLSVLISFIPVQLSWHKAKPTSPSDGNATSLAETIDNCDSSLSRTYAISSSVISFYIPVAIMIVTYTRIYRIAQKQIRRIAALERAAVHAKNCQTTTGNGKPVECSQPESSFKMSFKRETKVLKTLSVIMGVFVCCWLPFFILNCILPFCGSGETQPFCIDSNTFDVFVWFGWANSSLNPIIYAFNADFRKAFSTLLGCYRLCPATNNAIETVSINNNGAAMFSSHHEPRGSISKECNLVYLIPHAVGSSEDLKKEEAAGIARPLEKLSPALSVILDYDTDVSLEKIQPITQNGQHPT
Test: DRUGMATRIX: Dopamine D1 radioligand binding (ligand: [3H] SCH-23390)
Type: cell membranes, CHO, Membrane
Conditions: cho; Not Active = under 50% inhibition at 10 µM

SMILES	IC50	Ki
O=[N+]([O-])c1cc([As](=O)(O)O)ccc1O [ROXARSONE]	Not Active	Not Active
Cc1ncc([N+](=O)[O-])n1CC(C)O (stereo not given) [SECNIDAZOLE]	Not Active	–

Target: Aldo-keto reductase family 1 member B1 (Rattus norvegicus, UniProt P07943)
Test: not given
Type: tissue-based, Lens of camera-type eye
Conditions: not given

SMILES	IC50	Ki
O=[N+]([O-])c1cc([As](=O)(O)O)ccc1O [ROXARSONE]	Not Active	Not Active
Cc1ncc([N+](=O)[O-])n1CC(C)O (stereo not given) [SECNIDAZOLE]	Not Active	–

Tested on: not listed separately
Test: DRUGMATRIX: Glutamate, AMPA radioligand binding (ligand: [3H] AMPA)
Type: cell membranes, Rattus norvegicus, Wistar, Cerebral cortex, Membrane
Conditions: Not Active = under 50% inhibition at 10 µM

SMILES	IC50	Ki
O=[N+]([O-])c1cc([As](=O)(O)O)ccc1O [ROXARSONE]	Not Active	Not Active
Cc1ncc([N+](=O)[O-])n1CC(C)O (stereo not given) [SECNIDAZOLE]	Not Active	Not Active
